Results taken from US20010005752A1, “Fluorescent dyes (AIDA) for solid phase and solution phase screening” (priority 1998, published 2001).
Blank lines part the entries; values can stand above or below the molecule they belong to.

How the values were obtained:
[1] = Steady-state fluorescence spectroscopy (excitation and emission spectra); type: physicochemical; settings: for Emission range in parenthesis / Emission λmax / Excitation range in parenthesis / Excitation λmax: acetonitrile/2% DMSO
Method: Steady-state fluorescence measurements are performed on a SLM 8000C spectro-fluorometer equipped with JD490 photomultipliers and a 450 W Xenon Arclamp (SLM Instruments, Urbana, Ill.).
[…] Spectral bandwidths are set to 1 and 4 nm for excitation and emission, respectively. Spectra are recorded in single photon counting mode. Changes in lamp intensity are corrected with a quantum counter in the reference channel, measured in slow mode. Gain is set to x 100 with a high voltage (HV) of 640 V. Integration time is 2 seconds. For excitation spectra measurements, the emission wavelength is set to 397 nm and the sample is excited from 200 to 400 nm. For recording emission spectra, the sample is excited at 342 nm and the emission is recorded from 350 to 540 nm. The data are averaged over two scans.

avidin [2] = target: T1, avidin (Gallus gallus, UniProt P02701); test: FRET / quenching with unlabelled avidin (tryptophan donor, AIDA acceptor); type: binding
T1 construct: purchased Molecular Probes (Eugene, Oreg.) A-2767
T1 sequence (P02701 25-152): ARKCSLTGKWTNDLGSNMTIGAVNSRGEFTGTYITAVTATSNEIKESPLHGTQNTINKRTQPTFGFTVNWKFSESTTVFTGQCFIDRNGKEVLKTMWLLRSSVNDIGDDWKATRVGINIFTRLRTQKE
Method: (§1) For solubility reasons, 4e is spectroscopically characterized in THF. All complexation reactions and fluorescence resonance energy transfer measurements are performed in PBS/5% DMSO at 25° C., unless indicated otherwise.
(§2) Spectral bandwidths are set to 8 and 16 nm for excitation and emission, respectively. Measurements are performed at 25° C. in a 750 μL quartz cuvette (10 mm optical pathlength) without stirring after initial mixing. A concentration of 50 nM of 9 or 11 is used for complexation with 1 μM of (fluorescent) avidin. […] All titrations are performed in magic angle setting, with the emission wavelength set to […] in experiments where the indazole is the acceptor, and with an excitation spectrum recorded from 250 nm to 360 nm. In experiments where indazole is used as donor and Lucifer Yellow or BODIPY FL is the acceptor, the excitation wavelength is set to 338 nm or 325 nm. The fluorescence emission is collected between 360 nm and 700 nm. The spectra are corrected for Raman scattering from the PBS solution, for dilution, and for inner filter effects due to protein additions, The signal is adjusted for lamp intensity changes by ratio mode detection with a Rhodamine B quantum counter in the reference channel. A WG 360 emission cutoff filter is used for straylight reduction. Data are collected in 2 nm increments with 1 second integration time.
An emission wavelength at 480 nm was chosen because the tryptophan fluorescence of avidin had almost reached the baseline level at this emission energy, resulting in only minor avidin fluorescence contribution between 250 and 370 nm. […] This quenching effect can be attributed to all radiative and non-radiative processes occurring to 11 in the vicinity of the tryptophans in the binding cleft. Corresponding to the ratio of the negative and positive areas under the fluorescence difference curve (black), 62% of this total quenching effect is fluorescence resonance energy transfer. From 250 to 305 nm the enhancement of the tryptophan and tyrosine fluorescence intensity is 72% based on the sum of 11 and avidin.

avidin [3] = target: T1, avidin; test: Fluorescence anisotropy as signal for binding to avidin
Method: as §1
(§3) Fluorescence anisotropy is calculated according to [Lakowicz, 1983].
(§4) Spectral bandwidths are set to 4 and 8 nm for excitation and emission, respectively, with 5 seconds integration time. For calculation of fluorescence anisotropy ten data points are averaged.
(§5) This value is indicative for a small monomeric molecule rotating free in solution. […] When 1 μM of the BODIPY-FL labelled avidin was used as substrate the r-value was 0.100. This reduced change in anisotropy probably reflects the lower affinity of the BODIPY-FL labelled avidin as compared to the unlabelled material.

[4] = UV-Vis absorption spectroscopy; type: physicochemical; settings: acetonitrile/2% DMSO
Method: UV-Vis absorption spectroscopy is performed on a Cary 1E spectrophotometer. […]
[…] […] From each stock solution, 5 dilutions with concentrations of 2.5 μm, 10 μM, 17 μM, 25 μm and 35 μM are made. UV-spectra of each dilution are recorded from 200 to 400 nm, using a quarz cuvette with a pathlength of 1 cm. […] A linear fit is carried out for each series of measurements. The extinction coefficient ε at 337 nm is given by the slope of the linear regression.

[5] = target: T2, BODIPY-FL labelled avidin (Gallus gallus, UniProt P02701); test: Fluorescence anisotropy with BODIPY-FL labelled avidin; type: binding; settings: 50 nM conjugate, 1 μM BODIPY-FL labelled avidin
T2 construct: BODIPY FL (chemical fluorescent label, about 3.3 per avidin); purchased Molecular Probes (Eugene, Oreg.) A-2641
T2 sequence (P02701 25-152): as above
Method: as §1, §3, §4, §5

avidin-BODIPY-FL = target: T3, avidin-BODIPY-FL (Gallus gallus, UniProt P02701); test: FRET / quenching with avidin-BODIPY-FL (AIDA donor, BODIPY-FL acceptor); type: binding
T3 construct: BODIPY FL (chemical fluorescent label, about 3.3 per avidin); purchased Molecular Probes (Eugene, Oreg.) A-2641
T3 sequence (P02701 25-152): as above
Method: as §1, §2
In these experiments 11 was used as donor and BODIPY-FL as acceptor. At an excitation wavelength of 338 nm the emission of 11 between 360 nm and 516 nm is strongly quenched by approximately 80% in the complexed form. The standard definition for energy transfer efficiency, E=1−Fda/Fd, would result in E≅0.8. […] The approximately 80% reduction in signal intensity of 11 can be caused either by FRET or from local quenching of the fluorescence of 11 mainly by ground state interactions. […] Due to the broad fluorescence emission of 11 in water the detection wavelength can be shifted up to 500 nm which is at lower energy than most background fluorescence signals from small chemical compounds.

avidin [6] = target: T1, avidin; test: Time-resolved fluorescence depolarisation on binding of avidin; settings: PBS/5% DMSO
Method: Picosecond time-resolved fluorescence measurements are recorded according to the single photon counting technique [Lakowicz, 1983 p 52-93, 112-153, 156-185]. An Ar^+-pumped Ti:Sapphire laser (model MIRA 900, Coherent, Santa Clara, USA) provided under mode-locked conditions ultrashort pulses (FWHM=150 fs) with a frequency of 75 MHz. To reduce the repetition rate to 4.7 MHz, a pulse picker (model 9200, Coherent, Santa Clara, USA) is inserted into the beam. […] Fluorescence photons are collected in a Spex 1681 single grating monochromator (Spex, Edison, USA) and detected with the Hamamatsu R3809U microchannel plate (Hamamatsu, Shimokanzo, Japan). […] The voltage values which correspond to the time passed between excitation and emission of a fluorescence photon in a single experiment are stored in the Spectrum Master 921 (Ortec, Oak Ridge, USA) which is connected to the multichannel emulation program Maestro (Ortec, Oak Ridge, USA). […]
c. Binding of AIDA conjugate 8 to avidin-BODIPY detected by rotational diffusion and energy transfer: Energy transfer between the indazole moiety in 8 and the 3.3 BODIPY-FL lables on avidin by time-resolved fluorescence spectroscopy.
Binding of avidin labelled with BODIPY-FL to 8 creates a further depolarisation mode for the indazole fluorescence: Fluorescence resonance energy transfer between the indazole moiety of 8 and the BODIPY-FL labels. […]

[7] = in acetonitrile; cited from earlier work
[8] = in acetonitrile; cited from earlier work; remark: listed apart in the source
[9] = unlabelled avidin, conjugate as acceptor

emission maximum ([1]; 50 nM, PBS/5% DMSO, excitation 338 nm): 438 nm
emission intensity at 500 nm ([1]; PBS buffer, 500 nm): about 50%
Emission range in parenthesis [1]: 370-480 nm
Emission λmax [1]: 397 nm
Excitation range in parenthesis [1]: 310-360 nm
Excitation λmax [1]: 336 nm
quenching of conjugate fluorescence by complexation in the avidin binding site (avidin [2]; 50 nM conjugate, 1 μM unlabelled avidin, emission 480 nm): about 25.5%
enhancement of tryptophan and tyrosine fluorescence intensity (avidin [2]; 250 to 305 nm, based on the sum of 11 and avidin): 72%
tryptophan to conjugate energy transfer relative to free avidin plus 11 (avidin [2]; detected at 480 nm): 70%
part of total quenching effect that is fluorescence resonance energy transfer (avidin [2]; ratio of negative and positive areas under difference curve): 62%
change of anisotropy on binding to avidin (avidin [3]; 50 nM conjugate, 1 μM avidin): +444%
fluorescence anisotropy bound to avidin (avidin [3]; 50 nM conjugate, 1 μM avidin): 0.151
basic fluorescence anisotropy (free conjugate) (avidin [3]; 50 nM, excitation 338 nm, emission 438 nm, no avidin): 0.034
Absorption λmax [4]: 334 nm
ε (at absorption λmax) [4]: 34349 M⁻¹ cm⁻¹
fluorescence anisotropy (r-value) with BODIPY-FL labelled avidin [5]: 0.100
energy transfer efficiency E=1−Fda/Fd (avidin-BODIPY-FL; standard definition, stated as not valid here): ~0.8
SMILES: C=CCOC(=O)c1ccc(-c2nn(-c3ccc(C(=O)N[C@@H](CCCCNC(=O)CCCCC4SCC5NC(=O)NC54)C(=O)O)cc3)c3ccccc23)cc1 (stereo partly drawn) [compound 11]

Emission range in parenthesis [1]: 360-480 nm
Emission λmax [1]: 394 nm
Excitation range in parenthesis [1]: 310-360 nm
Excitation λmax [1]: 332 nm
enhanced energy transfer (tryptophan/indazole) (avidin [2]; [9]): 120%
increase in indazole fluorescence emission on avidin complexation (avidin [2]; [9]): 26%
fluorescence depolarisation on binding of avidin (unlabelled) (avidin [6]): slower depolarisation
Absorption λmax [4]: 331 nm
ε (at absorption λmax) [4]: 32158 M⁻¹ cm⁻¹
quenching of indazole (donor) emission in complex with avidin-BODIPY-FL (avidin-BODIPY-FL; 50 nM conjugate, 1 μM avidin-BODIPY-FL, excitation 338 nm, emission 360-516 nm): 93.5%
SMILES: NC(=O)c1ccc(-n2nc(-c3ccc(C(=O)NCCCNC(=O)CCCCC4SCC5NC(=O)NC54)cc3)c3ccccc32)cc1 (stereo not drawn) [compound 8, 3′(+)-4-{3-[4-(3′-Biotinoylaminopropyl)-aminocarbonyl]phenyl-1H-indazol-1-yl}-benzoic acid Amide]
fluoresence energy transfer (acceptor sensitization) (avidin-BODIPY-FL; avidin-BODIPY complex): 48%

SMILES: c1ccc2[nH]ncc2c1 [1H-indazole]
maximum of absorption [7]: 294 nm
maximum of fluorescence emission [8]: 298 nm
